Source: US20090082329A1 (AVENTIS PHARMA S.A., priority 2006, published 2009)
Like-named read-outs stand apart in the source and are kept apart here.

Tests used:
MEF-IGF1R cells = assay: Proliferation/viability of MEF-IGF1R (Thymidine [14C] incorporation); assay type: cell-based; details: rhIGF1 100 ng/mL, incubation 72 hours, read-out: Test C IC50
Protocol: C) Measurement of the Proliferation/Viability of MEF-IGF1R
Cell culture: the MEF-IGF1R cells (stable clone of cells transfected with the receptor hIGF-1R) are cultured at 37° C. under 5% CO2 in EMEM medium containing 10% FCS.
Test procedure: the cells are seeded at 5000 cells per well in 96-well Cytostar plates (Amersham) with 0.2 mL of EMEM culture medium at 37° C. for 18 hours. The cells are then washed twice with EMEM medium and left to culture without serum for 24 hours. The compounds are then added at various concentrations in the presence of rhIGF1 (100 ng/mL) and 0.1 μCi of Thymidine [^14C] (specific activity ˜50 mCi/mmol) to give 0.2 mL of volume per well. After incubation for 72 hours in the presence of the compound, at 37° C. under 5% CO2, the incorporation of Thymidine [^14C] is measured by counting the radioactivity on a Microbeta trilux counter (Perkin-Elmer). The IC50 is determined from 10 increasing concentrations of the compound.
(§1) (i) The tests are performed in duplicate and the mean of the two tests is calculated.
(§2) (ii) The value of the signal of the maximum response is calculated from the positive control: cells stimulated with IGF1 without compound.
(§3) (iii) Value of the signal of the minimum response is calculated from the negative control: cells not stimulated with IGF1 without compound.
(§4) (iv) By using these values as maximum (100%) and minimum (0%), respectively, the data were normalized so as to give a percentage of the maximum response.
(§5) (v) A curve of dose response is plotted and the IC50 (the concentration of which the compound induces a 50% decrease in the signal) of the compound is calculated by non-linear regression analysis.

[1] = biological target: T1, human cytoplasmic domain of IGF-1R (Homo sapiens, UniProt P08069); assay: Kinase IGF-1R test: inhibition of autophosphorylation of the enzyme (HTRF); assay type: biochemical; details: ATP 120 μM
T1 construct: The human cytoplasmic domain of IGF-1R was cloned by fusion with glutathione S-transferase (GST); made in house; host or cells: SF21 insect cells (baculovirus, pFastBac-GST)
T1 sequence (P08069 960-1367 limits assumed): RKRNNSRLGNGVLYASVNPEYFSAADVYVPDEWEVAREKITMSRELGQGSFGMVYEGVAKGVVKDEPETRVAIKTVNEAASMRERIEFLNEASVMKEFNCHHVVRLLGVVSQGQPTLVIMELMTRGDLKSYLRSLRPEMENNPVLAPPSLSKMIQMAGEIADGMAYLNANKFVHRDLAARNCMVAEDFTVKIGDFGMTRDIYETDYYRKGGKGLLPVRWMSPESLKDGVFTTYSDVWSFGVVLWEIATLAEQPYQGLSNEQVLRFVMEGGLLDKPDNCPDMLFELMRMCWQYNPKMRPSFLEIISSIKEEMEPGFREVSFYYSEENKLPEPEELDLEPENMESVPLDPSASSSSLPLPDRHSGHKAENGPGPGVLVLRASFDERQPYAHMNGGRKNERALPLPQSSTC
Protocol: A) Experimental Protocol for the Kinase IGF-1R Test:
The inhibitory activity of the compounds on IGF1R is determined by measuring the inhibition of autophosphorylation of the enzyme using a time-resolved fluorescence test (HTRF). The human cytoplasmic domain of IGF-1R was cloned by fusion with glutathione S-transferase (GST) in the baculovirus expression vector pFastBac-GST. The protein is expressed in the SF21 cells and purified to about 80% homogeneity. For the enzymatic test, the test compound at 10 mM dissolved in DMSO is diluted in ⅓ steps in a 50 mM Hepes, pH 7.5, 5 mM MnCl2, 50 mM NaCl, 3% Glycerol, 0.025% Tween 20 buffer. To measure the inhibition, the successive dilutions of the compound are preincubated for 30 minutes and 90 minutes in the presence of 5 nM of enzyme, the final DMSO concentration not exceeding 1%. The enzymatic reaction is initiated to have a final ATP concentration of 120 μM, and is stopped after 5 minutes by addition of 100 mM Hepes, pH 7.0 buffer containing 0.4 M of potassium fluoride, 133 mM EDTA, 0.1% BSA, the XL665-labelled antibody anti-GST and the anti-phosphotyrosine antibody conjugated to europium cryptate Eu—K (Cis-Bio Int.). The characteristics of the two fluorophores, XL-665 and Eu—K, are available in G. Mathis et al., Anticancer Research, 1997, 17, pages 3011-3014. The energy transfer between the excited europium cryptate to the acceptor XL665 is proportional to the degree of autophosphorylation of IGF-1R. The specific long-lasting signal of XL-665 is measured in a GENios Pro TECAN plate counter. The inhibition of autophosphorylation of IGF-1R at time 30 minutes and 90 minutes with the test compounds of the invention is calculated relative to a 1% in DMSO control, whose activity is measured in the absence of compound. The curve representing the percentage of inhibition as a function of the log of the concentration is established to determine the concentration corresponding to 50% inhibition (IC50),

IGF-1R in MCF7 cells = IGF-1R in MCF7 cells (Homo sapiens, UniProt P08069); assay: Autophosphorylation of IGF-1R in MCF7 cells after stimulation with IGF-1 (ELISA); assay type: cell-based; parameters: endogenous in cells; host or cells: MCF-7 cells; details: MCF-7 cells, compound added one hour before stimulation with IGF1; read-out: Test B IC50
Sequence of IGF-1R in MCF7 cells (P08069 31-1367): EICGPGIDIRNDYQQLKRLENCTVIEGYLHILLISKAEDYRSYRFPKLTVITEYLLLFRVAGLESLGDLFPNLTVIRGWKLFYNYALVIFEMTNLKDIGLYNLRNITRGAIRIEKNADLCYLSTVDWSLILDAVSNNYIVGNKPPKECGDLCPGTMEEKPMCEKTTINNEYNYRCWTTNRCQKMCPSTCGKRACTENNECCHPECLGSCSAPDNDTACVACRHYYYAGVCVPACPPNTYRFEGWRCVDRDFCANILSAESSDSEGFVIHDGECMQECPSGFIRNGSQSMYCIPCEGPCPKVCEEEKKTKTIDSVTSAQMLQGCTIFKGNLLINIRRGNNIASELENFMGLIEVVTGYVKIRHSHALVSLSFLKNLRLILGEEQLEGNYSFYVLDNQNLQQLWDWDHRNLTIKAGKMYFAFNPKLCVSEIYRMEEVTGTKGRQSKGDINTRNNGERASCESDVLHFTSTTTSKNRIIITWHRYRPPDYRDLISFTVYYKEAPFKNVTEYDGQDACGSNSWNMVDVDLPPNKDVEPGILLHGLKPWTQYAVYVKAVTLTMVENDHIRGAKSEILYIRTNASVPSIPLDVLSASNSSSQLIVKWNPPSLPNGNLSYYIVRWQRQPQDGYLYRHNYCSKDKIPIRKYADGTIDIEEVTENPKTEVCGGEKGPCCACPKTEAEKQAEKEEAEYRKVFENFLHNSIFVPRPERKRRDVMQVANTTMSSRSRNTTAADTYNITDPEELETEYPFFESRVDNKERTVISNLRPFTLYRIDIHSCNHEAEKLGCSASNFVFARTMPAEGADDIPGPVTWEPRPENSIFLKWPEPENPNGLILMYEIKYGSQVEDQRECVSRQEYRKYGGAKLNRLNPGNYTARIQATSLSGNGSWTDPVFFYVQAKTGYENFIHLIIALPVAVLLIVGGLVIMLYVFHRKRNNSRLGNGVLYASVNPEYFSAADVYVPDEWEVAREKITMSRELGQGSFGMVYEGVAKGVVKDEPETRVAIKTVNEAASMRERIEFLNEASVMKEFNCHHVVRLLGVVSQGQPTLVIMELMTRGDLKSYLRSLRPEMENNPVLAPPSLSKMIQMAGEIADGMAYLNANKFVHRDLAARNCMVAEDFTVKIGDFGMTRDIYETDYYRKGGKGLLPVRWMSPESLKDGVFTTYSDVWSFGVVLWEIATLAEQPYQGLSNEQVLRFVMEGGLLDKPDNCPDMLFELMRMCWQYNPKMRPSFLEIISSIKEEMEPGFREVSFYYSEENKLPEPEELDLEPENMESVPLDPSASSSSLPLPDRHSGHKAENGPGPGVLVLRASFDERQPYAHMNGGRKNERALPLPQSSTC
Protocol: B) Measurement of the Autophosphorylation of IGF-1R in MCF7 Cells after Stimulation with IGF-1
Cell Culturing and Execution of the Test:
The autophosphorylation of IGF1R in the IGF1-induced cells is evaluated by means of an ELISA technique (Enzyme Linked ImmunoSorbent Assay). The MCF-7 are seeded at 60 000 cells per well in 6-well plates and incubated at 37° C., 5% CO2 in medium containing 10% serum. After one night in 10% serum, the cells are deprived of serum for 24 hours. The compounds are added to the medium one hour before stimulation with IGF1. After 10 minutes of stimulation with IGF1, the cells are lysed with a buffer (Hepes 50 mM pH 7.6, Triton X100 1%, orthovanadate 2 mM, protease inhibitor cocktail). The cell lysates are incubated on a 96-well plate precoated with an anti-IGF1R antibody, followed by incubation with an anti-phosphotyrosine antibody coupled to the enzyme peroxidase. The level of peroxidase activity (measured by OD with a luminescent substrate) reflects the phosphorylation status of the receptor.
as §1, §2, §3, §4, §5

[2] = preincubation 30 minutes with 5 nM enzyme, read-out: Test A 30′ IC50
[3] = preincubation 90 minutes with 5 nM enzyme, read-out: Test A 90′ IC50

Row | IC50 [1, 2] [nM] | IC50 [1, 3] [nM] | IC50 (IGF-1R in MCF7 cells) [nM] | Compound | IC50 (MEF-IGF1R cells) [nM]
1 | 10 to 100 | < 10 |  | CC1(C)C(=O)N(c2ccc(SC(F)(F)F)cc2)C(=O)N1Cc1ccnc(NC(=O)NC2CC(CO)C2)c1 (mixture of isomers) [Example 40B Stage a), 1-{4-[(5,5-dimethyl-2,4-dioxo-3-{4-[(trifluoro-methyl)thio]phenyl}imidazolidin-1-yl)methyl]pyridin-2-yl}-3-[3-(hydroxymethyl)cyclobutyl]urea] | 
2 | > 100 | > 100 |  | CN(C)C(=O)Nc1nccc(CN2C(=O)N(c3ccc(S(=O)(=O)C(F)(F)F)cc3)C(=O)C2(C)C)n1 [Example 12, 3-{4-[(5,5-dimethyl-2,4-dioxo-3-{4-[(trifluoro-methyl)sulfonyl]phenyl}imidazolidin-1-yl)methyl]pyrimidin-2-yl}-1,1-dimethylurea] | > 100
3 | > 100 | 10 to 100 |  | CC1(C)C(=O)N(c2ccc(SC(F)(F)F)cc2)C(=O)N1Cc1ccnc(Nc2cncc(F)c2)c1 [Example 17, 1-({2-[(5-fluoropyridin-3-yl)amino]pyridin-4-yl}-methyl)-5,5-dimethyl-3-{4-[(trifluoromethyl)thio]phenyl}imidazolidine-2,4-dione] | > 100
4 | > 100 | 10 to 100 |  | CC1(C)C(=O)N(c2ccc(SC(F)(F)F)cc2)C(=O)N1Cc1ccnc(NC(=O)NC2CCCCC2)c1 [Example 25, 1-cyclohexyl-3-{4-[(5,5-dimethyl-2,4-dioxo-3-{4-[(trifluoromethyl)thio]phenyl}imidazolidin-1-yl)methyl]pyridin-2-yl}urea] | > 100
5 | > 100 | 10 to 100 |  | CC1(C)C(=O)N(c2ccc(SC(F)(F)F)cc2)C(=O)N1Cc1ccnc(NC(=O)NCCN2CCCCC2)c1 [Example 31, 1-{4-[(5,5-dimethyl-2,4-dioxo-3-{4-[(trifluoro-methyl)thio]phenyl}imidazolidin-1-yl)methyl]pyridin-2-yl}-3-(2-piperidin-1-ylethyl)urea] | > 100
6 | > 100 | 10 to 100 |  | CCCCNC(=O)Nc1cc(CN2C(=O)N(c3ccc(SC(F)(F)F)cc3)C(=O)C2(C)C)ccn1 [Example 37, 1-butyl-3-{4-[(5,5-dimethyl-2,4-dioxo-3-{4-[(tri-fluoromethyl)thio]phenyl}imidazolidin-1-yl)methyl]pyridin-2-yl}urea] | 10 to 100
7 | 10 to 100 | < 10 |  | CN(C)CCCCNC(=O)Nc1cc(CN2C(=O)N(c3ccc(SC(F)(F)F)cc3)C(=O)C2(C)C)ccn1 [Example 40, 1-[4-(dimethylamino)butyl]-3-{4-[(5,5-dimethyl-2,4-dioxo-3-{4-[(trifluoromethyl)thio]phenyl}imidazolidin-1-yl)-methyl]pyridin-2-yl}urea] | > 100

More lines, now with the values behind:

Row | Compound | IC50 [1, 2] [nM] | IC50 [1, 3] [nM] | IC50 (IGF-1R in MCF7 cells) [nM] | IC50 (MEF-IGF1R cells) [nM]
8 | 1-{4-[(5,5-dimethyl-2,4-dioxo-3-{4-[(trifluoro-methyl)thio]phenyl}imidazolidin-1-yl)methyl]pyridin-2-yl}-3-(2-morpholin-4-ylethyl)urea [Example 33] | 10 to 100 | 10 to 100 |  | > 100
9 | 1-{4-[(5,5-dimethyl-2,4-dioxo-3-{4-[(trifluoro-methyl)thio]phenyl}imidazolidin-1-yl)methyl]pyridin-2-yl}-3-[2-(4-methylpiperazin-1-yl)ethyl]urea [Example 32] | 10 to 100 | 10 to 100 |  | > 100
10 | CC1(C)C(=O)N(c2ccc(SC(F)(F)F)cc2)C(=O)N1Cc1ccnc(Nc2cc(Cl)ccc2Cl)c1 [Example 1, 1-({2-[(2,5-dichlorophenyl)amino]pyridin-4-yl}-methyl)-5,5-dimethyl-3-{4-[(trifluoromethyl)thio]phenyl}imidazolidine-2,4-dione] | > 100 | > 100 | > 100 | 10 to 100
11 | CC1(C)C(=O)N(c2ccc(SC(F)(F)F)cc2)C(=O)N1Cc1ccnc(NC(=O)N2CCCCC2)c1 [Example 2, N-{4-[(5,5-dimethyl-2,4-dioxo-3-{4-[(trifluoro-methyl)thio]phenyl}imidazolidin-1-yl)methyl]pyridin-2-yl}piperidine-1-carboxamide] | 10 to 100 | 10 to 100 | < 10 | 10 to 100
12 | CC1(C)C(=O)N(c2ccc(SC(F)(F)F)cc2)C(=O)N1Cc1ccnc(NC(=O)c2ccc(Cl)c(Cl)c2)c1 [Example 3, 3,4-dichloro-N-{4-[(5,5-dimethyl-2,4-dioxo-3-{4-[(trifluoromethyl)thio]phenyl}imidazolidin-1-yl)methyl]pyridin-2-yl}benzamide] | > 100 | > 100 | > 100 | 10 to 100
13 | CNC(=O)Nc1cc(CN2C(=O)N(c3ccc(S(=O)(=O)C(F)(F)F)cc3)C(=O)C2(C)C)ccn1 [Example 4, 1-{4-[(5,5-dimethyl-2,4-dioxo-3-{4-[(trifluoro-methyl)sulfonyl]phenyl}imidazolidin-1-yl)methyl]pyridin-2-yl}-3-methylurea] | > 100 | 10 to 100 | < 10 | 10 to 100
14 | CC1(C)C(=O)N(c2ccc(SC(F)(F)F)cc2)C(=O)N1Cc1ccnc(Nc2cc(F)ccc2F)c1 [Example 5, 1-({2-[(2,5-difluorophenyl)amino]pyridin-4-yl}-methyl)-5,5-dimethyl-3-{4-[(trifluoromethyl)thio]phenyl}imidazolidine-2,4-dione] | 10 to 100 |  | > 100 | 10 to 100
15 | CN(C)C(=O)Nc1nccc(CN2C(=O)N(c3ccc(SC(F)(F)F)cc3)C(=O)C2(C)C)n1 [Example 10, 3-{4-[(5,5-dimethyl-2,4-dioxo-3-{4-[(trifluoro-methyl)thio]phenyl}imidazolidin-1-yl)methyl]pyrimidin-2-yl}-1,1-dimethylurea] | > 100 | > 100 |  | > 100
16 | CN(C)CCCNC(=O)Nc1cc(CN2C(=O)N(c3ccc(SC(F)(F)F)cc3)C(=O)C2(C)C)ccn1 [Example 38, 1-[3-(dimethylamino)propyl]-3-{4-[(5,5-dimethyl-2,4-dioxo-3-{4-[(trifluoromethyl)thio]phenyl}imidazolidin-1-yl)methyl]pyridin-2-yl}urea] | 10 to 100 | 10 to 100 |  | > 100
